Measured values reported in US9452986B2, “6-heteroaryloxy- or 6-aryloxy-quinoline-2-carboxamides and method of use” (AbbVie Inc., priority 2014, dated 2016).

Molecular target: recombinant human Nav1.7 (Homo sapiens (Human), UniProt Q15858)
Assay: FRET-based membrane potential assay, recombinant human sodium channel Nav1.7
Assay type: cell-based
Details: FRET-Membrane Potential Nav1.7 IC50
Protocol: FRET-Based Membrane Potential Assays.
Recombinant, Human Sodium Channel, Nav1.7.
On the day of the assay, medium was removed by aspiration, and cells were washed with assay buffer [HBSS (Invitrogen, Carlsbad, Calif.) containing 20 mM HEPES (Invitrogen, Carlsbad, Calif.)]. […] Cells were incubated for 40 minutes at room temperature in the dark. […] The cells were incubated for 90 minutes at room temperature in the dark. Fluorescence readings were made using a FLIPR®^TETRA (Molecular Devices, Sunnyvale Calif.) equipped with voltage-sensor probe optics. At the start of each experiment the optimal (EC80) concentration of depolarizing agent (veratridine) was determined by testing a dilution curve of assay buffer containing veratridine (Sigma-Aldrich, St. Louis, Mo.) and 1 mg/mL scorpion venom (SVqq, from Leiurus quinquestriatus; Sigma-Aldrich, St. Louis, Mo.). […] Test compounds in the daughter plate were diluted to (˜3×) solutions in assay buffer immediately before assaying. Using the FLIPR®^TETRA, 20 μL of the (3×) compound solutions were first added to the cells, then 20 μL of depolarizing solution (3×EC80 veratridine+SVqq) were added 3 minutes later to activate the channel. […] IC50 values were calculated from curve fits of the ratio data using a four-parameter logistic Hill equation (Accelrys Assay Explorer 3.3 Client, Accelrys, San Diego, Calif.) with percent inhibition plotted against compound concentration.

Sequence of recombinant human Nav1.7 (Q15858 whole entry): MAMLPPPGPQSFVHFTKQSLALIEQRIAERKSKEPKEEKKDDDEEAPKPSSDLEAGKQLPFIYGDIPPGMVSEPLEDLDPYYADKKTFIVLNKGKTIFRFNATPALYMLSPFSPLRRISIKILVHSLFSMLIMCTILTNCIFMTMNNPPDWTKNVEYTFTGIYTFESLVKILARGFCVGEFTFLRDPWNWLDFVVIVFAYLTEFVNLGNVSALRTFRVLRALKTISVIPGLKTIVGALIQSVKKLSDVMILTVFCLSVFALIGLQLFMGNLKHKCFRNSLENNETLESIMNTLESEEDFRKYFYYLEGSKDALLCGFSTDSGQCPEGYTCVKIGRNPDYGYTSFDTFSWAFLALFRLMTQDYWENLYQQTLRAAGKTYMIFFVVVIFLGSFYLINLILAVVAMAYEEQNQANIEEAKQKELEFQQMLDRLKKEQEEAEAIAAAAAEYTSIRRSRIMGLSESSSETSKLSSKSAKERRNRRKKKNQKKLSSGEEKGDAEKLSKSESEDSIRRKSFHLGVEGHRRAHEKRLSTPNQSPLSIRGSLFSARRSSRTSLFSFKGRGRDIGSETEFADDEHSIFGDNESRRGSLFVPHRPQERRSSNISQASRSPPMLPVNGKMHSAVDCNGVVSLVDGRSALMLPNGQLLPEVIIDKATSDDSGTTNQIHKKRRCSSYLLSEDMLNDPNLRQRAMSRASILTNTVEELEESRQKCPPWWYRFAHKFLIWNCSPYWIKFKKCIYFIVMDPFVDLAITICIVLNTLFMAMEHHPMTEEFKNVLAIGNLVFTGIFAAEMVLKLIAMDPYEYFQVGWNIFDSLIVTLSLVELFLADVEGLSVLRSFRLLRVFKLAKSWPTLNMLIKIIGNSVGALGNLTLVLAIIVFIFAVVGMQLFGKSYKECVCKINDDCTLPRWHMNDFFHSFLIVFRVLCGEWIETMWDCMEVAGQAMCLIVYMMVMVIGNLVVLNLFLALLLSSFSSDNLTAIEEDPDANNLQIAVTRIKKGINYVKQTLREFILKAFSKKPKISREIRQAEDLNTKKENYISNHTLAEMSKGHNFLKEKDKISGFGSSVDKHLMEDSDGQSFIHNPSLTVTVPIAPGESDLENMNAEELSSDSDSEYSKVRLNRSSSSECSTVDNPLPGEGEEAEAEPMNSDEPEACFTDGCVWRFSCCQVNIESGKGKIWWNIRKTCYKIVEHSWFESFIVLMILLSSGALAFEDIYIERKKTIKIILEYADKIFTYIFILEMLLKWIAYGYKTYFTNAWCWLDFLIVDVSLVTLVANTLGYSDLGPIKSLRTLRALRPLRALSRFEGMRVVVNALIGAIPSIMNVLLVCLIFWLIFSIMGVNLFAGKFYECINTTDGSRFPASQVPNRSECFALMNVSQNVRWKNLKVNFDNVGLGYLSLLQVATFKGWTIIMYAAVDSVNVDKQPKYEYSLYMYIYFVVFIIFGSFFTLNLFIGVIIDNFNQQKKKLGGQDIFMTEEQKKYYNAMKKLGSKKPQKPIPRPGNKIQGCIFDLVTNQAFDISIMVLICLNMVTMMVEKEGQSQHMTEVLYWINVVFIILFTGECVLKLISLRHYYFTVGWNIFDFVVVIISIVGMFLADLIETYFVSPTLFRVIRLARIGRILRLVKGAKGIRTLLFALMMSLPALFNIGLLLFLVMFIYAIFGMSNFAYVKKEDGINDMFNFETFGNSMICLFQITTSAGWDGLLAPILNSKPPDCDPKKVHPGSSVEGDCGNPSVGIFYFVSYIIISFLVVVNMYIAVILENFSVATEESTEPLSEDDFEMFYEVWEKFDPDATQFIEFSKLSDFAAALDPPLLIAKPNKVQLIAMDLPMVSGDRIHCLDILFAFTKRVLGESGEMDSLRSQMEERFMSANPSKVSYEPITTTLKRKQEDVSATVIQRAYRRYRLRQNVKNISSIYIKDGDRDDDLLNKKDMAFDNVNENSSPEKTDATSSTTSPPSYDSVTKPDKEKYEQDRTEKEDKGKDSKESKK

| Structure (SMILES) | IC50 [µM] |
| --- | --- |
| O=C(c1ccc2cc(Oc3ccc(C(F)(F)F)nc3)ccc2n1)N1C[C@@H](O)[C@@H](O)C1 [Example 546, [cis-3,4-dihydroxypyrrolidin-1-yl](6-{[6-(trifluoromethyl)pyridin-3-yl]oxy}quinolin-2-yl)methanone] | 10.1 |

Same assay, conditions: HEK293 cells stably expressing recombinant human Nav1.7; veratridine + scorpion venom depolarization; read-out: FRET-Membrane Potential Nav1.7 IC50

| Structure (SMILES) | IC50 [µM] |
| --- | --- |
| O=C(c1ccc2cc(Oc3ccc(C(F)(F)F)cn3)ccc2n1)N1CCN(Cc2ncco2)CC1 [Example 510, [4-(1,3-oxazol-2-ylmethyl)piperazin-1-yl](6-{[5-(trifluoromethyl)pyridin-2-yl]oxy}quinolin-2-yl)methanone] | 7.29 |
| CC(C)[C@H]1CN(C(=O)c2ccc3cc(Oc4ccc(C#N)cc4)ccc3n2)CCN1 [Example 142, 4-[(2-{[(3S)-3-isopropylpiperazin-1-yl]carbonyl}quinolin-6-yl)oxy]benzonitrile] | 0.766 |
| O=C(c1ccc2cc(Oc3ccc(C(F)(F)F)cn3)ccc2n1)N1CCC(F)CC1 [Example 318, (4-fluoropiperidin-1-yl)(6-{[5-(trifluoromethyl)pyridin-2-yl]oxy}quinolin-2-yl)methanone] | 7.41 |
| COCCOCC1(F)CCN(C(=O)c2ccc3cc(Oc4ccc(C(F)(F)F)cn4)ccc3n2)C1 (stereo not drawn) [Example 493, {3-fluoro-3-[(2-methoxyethoxy)methyl]pyrrolidin-1-yl}(6-{[5-(trifluoromethyl)pyridin-2-yl]oxy}quinolin-2-yl)methanone] | 0.802 |
| N#Cc1ccc(Oc2ccc3nc(C(=O)N[C@H]4CC[C@@H](O)C4)ccc3c2)cc1 [Example 130, 6-(4-cyanophenoxy)-N-[(1S,3R)-3-hydroxycyclopentyl]quinoline-2-carboxamide] | 2.05 |
| NC(=O)[C@H]1CCCN(C(=O)c2ccc3cc(Oc4ccc(C(F)(F)F)cn4)ccc3n2)C1 [Example 325, (3S)-1-[(6-{[5-(trifluoromethyl)pyridin-2-yl]oxy}quinolin-2-yl)carbonyl]piperidine-3-carboxamide] | 8.58 |
| CN(C(=O)c1ccc2cc(Oc3ccc(C(F)(F)F)cn3)ccc2n1)C1CS(=O)(=O)CC1O (stereo not drawn) [Example 398, N-(4-hydroxy-1,1-dioxidotetrahydrothiophen-3-yl)-N-methyl-6-{[5-(trifluoromethyl)pyridin-2-yl]oxy}quinoline-2-carboxamide] | 6.11 |
| O=C(c1ccc2cc(Oc3ccc(C(F)(F)F)cn3)ccc2n1)N1CCN(C2CC2)CC1 [Example 261, (4-cyclopropylpiperazin-1-yl)(6-{[5-(trifluoromethyl)pyridin-2-yl]oxy}quinolin-2-yl)methanone] | 6.31 |
| O=C(c1ccc2cc(Oc3ccc(C(F)(F)F)cn3)ccc2n1)N1C[C@@H](O)[C@H](O)C1 (relative stereo) [Example 303, [trans-3,4-dihydroxypyrrolidin-1-yl](6-{[5-(trifluoromethyl)pyridin-2-yl]oxy}quinolin-2-yl)methanone] | 5.68 |
| O=C(c1ccc2cc(Oc3ccc(C(F)(F)F)cn3)ccc2n1)N1CCNC2(CCC2)C1 [Example 418, 5,8-diazaspiro[3.5]non-8-yl(6-{[5-(trifluoromethyl)pyridin-2-yl]oxy}quinolin-2-yl)methanone] | 0.539 |
| O=C(c1ccc2cc(Oc3ccc(C(F)F)cn3)ccc2n1)N1CC[C@H](F)C1 [Example 576, (6-{[5-(difluoromethyl)pyridin-2-yl]oxy}quinolin-2-yl) [(3S)-3-fluoropyrrolidin-1-yl]methanone] | 10.1 |
| O=C(c1ccc2cc(Oc3ccc(C(F)(F)F)cn3)ccc2n1)N1CCNC[C@H]1CO [Example 234, [(2S)-2-(hydroxymethyl)piperazin-1-yl](6-{[5-(trifluoromethyl)pyridin-2-yl]oxy}quinolin-2-yl)methanone] | 2.87 |
| O=C(NCCC(F)(F)F)c1ccc2cc(Oc3ccc(C(F)(F)F)cn3)ccc2n1 [Example 355, 6-{[5-(trifluoromethyl)pyridin-2-yl]oxy}-N-(3,3,3-trifluoropropyl)quinoline-2-carboxamide] | 1.27 |
| CS(=O)(=O)C1CN(C(=O)c2ccc3cc(Oc4ccc(C(F)F)cn4)ccc3n2)C1 [Example 479, (6-{[5-(difluoromethyl)pyridin-2-yl]oxy}quinolin-2-yl)[3-(methylsulfonyl)azetidin-1-yl]methanone] | 3.19 |
| O=C(NC1CCSCC1)c1ccc2cc(Oc3ccc(C(F)(F)F)cn3)ccc2n1 [Example 400, N-(tetrahydro-2H-thiopyran-4-yl)-6-{[5-(trifluoromethyl)pyridin-2-yl]oxy}quinoline-2-carboxamide] | 1.22 |
| O=C(c1ccc2cc(Oc3ccc(C(F)(F)F)cn3)ccc2n1)N1CC2(CCCOC2)C1 [Example 533, 6-oxa-2-azaspiro[3.5]non-2-yl(6-{[5-(trifluoromethyl)pyridin-2-yl]oxy}quinolin-2-yl)methanone] | 2.4 |
| O=C(NC1CC(N2CCOCC2)C1)c1ccc2cc(Oc3ccc(C(F)(F)F)nc3)ccc2n1 (stereo not drawn) [Example 574, N-[3-(morpholin-4-yl)cyclobutyl]-6-{[6-(trifluoromethyl)pyridin-3-yl]oxy}quinoline-2-carboxamide] | 0.295 |
| N#Cc1ccc(Oc2ccc3nc(C(=O)NC4CCS(=O)(=O)C4)ccc3c2)nc1 (stereo not drawn) [Example 158, 6-[(5-cyanopyridin-2-yl)oxy]-N-(1,1-dioxidotetrahydrothiophen-3-yl)quinoline-2-carboxamide] | > 20 |
| O=C(c1ccc2cc(Oc3ccc(C(F)(F)F)cn3)ccc2n1)N1CC[C@@H](F)[C@H](O)C1 (relative stereo) [Example 196, [trans-4-fluoro-3-hydroxypiperidin-1-yl](6-{[5-(trifluoromethyl)pyridin-2-yl]oxy}quinolin-2-yl)methanone] | 4.93 |
| CC(C)(C)CC(=O)N1CCN(C(=O)c2ccc3cc(Oc4ccc(C(F)(F)F)cn4)ccc3n2)CC1 [Example 309, 3,3-dimethyl-1-{4-[(6-{[5-(trifluoromethyl)pyridin-2-yl]oxy}quinolin-2-yl)carbonyl]piperazin-1-yl}butan-1-one] | 3.57 |
| COCCOC1CN(C(=O)c2ccc3cc(Oc4ccc(C(F)(F)F)cn4)ccc3n2)C1 [Example 427, [3-(2-methoxyethoxy)azetidin-1-yl](6-{[5-(trifluoromethyl)pyridin-2-yl]oxy}quinolin-2-yl)methanone] | > 20 |
| O=C(c1ccc2cc(Oc3ccc(C(F)(F)F)cn3)ccc2n1)N1CCC2(CC1)CC(O)C2 [Example 354, (2-hydroxy-7-azaspiro[3.5]non-7-yl)(6-{[5-(trifluoromethyl)pyridin-2-yl]oxy}quinolin-2-yl)methanone] | 12.4 |
| COC(=O)CS(=O)(=O)N1CCN(C(=O)c2ccc3cc(Oc4ccc(C(F)(F)F)cn4)ccc3n2)CC1 [Example 382, methyl ({4-[(6-{[5-(trifluoromethyl)pyridin-2-yl]oxy}quinolin-2-yl)carbonyl]piperazin-1-yl}sulfonyl)acetate] | 1.82 |
| CN1CCN(C(=O)c2ccc3cc(Oc4ccc(C(F)(F)F)cn4)ccc3n2)CC1 [Example 211, (4-methylpiperazin-1-yl)(6-{[5-(trifluoromethyl)pyridin-2-yl]oxy}quinolin-2-yl)methanone] | 1.93 |
| CS(=O)(=O)NC(=O)c1ccc2cc(Oc3ccc(C(F)(F)F)cn3)ccc2n1 [Example 577, N-(methylsulfonyl)-6-{[5-(trifluoromethyl)pyridin-2-yl]oxy}quinoline-2-carboxamide] | 10.1 |
| N#Cc1ccc(Oc2ccc3nc(C(=O)NCC(N)=O)ccc3c2)cc1 [Example 146, N-(2-amino-2-oxoethyl)-6-(4-cyanophenoxy)quinoline-2-carboxamide] | 8.03 |

Same assay, conditions: read-out: FRET-Membrane Potential Nav1.7 IC50

| Structure (SMILES) | IC50 [µM] |
| --- | --- |
| O=C(c1ccc2cc(Oc3ccc(C(F)(F)F)cn3)ccc2n1)N1CC2(COC2)C1 [Example 156, 2-oxa-6-azaspiro[3.3]hept-6-yl(6-{[5-(trifluoromethyl)pyridin-2-yl]oxy}quinolin-2-yl)methanone] | > 20 |
| CC[C@@H]1CN(C(=O)c2ccc3cc(Oc4ccc(C(F)(F)F)nc4)ccc3n2)CCN1 [Example 543, [(3R)-3-ethylpiperazin-1-yl](6-{[6-(trifluoromethyl)pyridin-3-yl]oxy}quinolin-2-yl)methanone] | 0.398 |
| CNC(=O)c1ccc2cc(Oc3ccc(C(F)(F)F)cn3)ccc2n1 [Example 527, N-methyl-6-{[5-(trifluoromethyl)pyridin-2-yl]oxy}quinoline-2-carboxamide] | 5.91 |
| N#Cc1ccc(Oc2ccc3nc(C(=O)Nc4ccc(Oc5ccccc5)cc4)ccc3c2)cc1 [Example 101, 6-(4-cyanophenoxy)-N-(4-phenoxyphenyl)quinoline-2-carboxamide] | > 20 |
| N#Cc1ccc(Oc2ccc3nc(C(=O)N[C@@H]4CCC[C@@H]4O)ccc3c2)cc1 [Example 131, 6-(4-cyanophenoxy)-N-[(1R,2S)-2-hydroxycyclopentyl]quinoline-2-carboxamide] | 1.15 |
| CC[C@H]1CN(C(=O)c2ccc3cc(Oc4ccc(C(F)(F)F)nc4)ccc3n2)CCN1 [Example 553, [(3S)-3-ethylpiperazin-1-yl](6-{[6-(trifluoromethyl)pyridin-3-yl]oxy}quinolin-2-yl)methanone] | 0.949 |
